Source: patent publication US20230398227A1, “MEDICINE FOR TREATING CANCER” (CHIOME BIOSCIENCE INC., priority 2020, published 2023)

Tests used:
[1] = test system: Hep3B xenograft tumor; assay: Western blotting of apoptosis markers and cyclin B1 in Hep3B xenograft tumor at 48 hours after administration; format: in vivo, NOD-SCID mice; conditions: three animals per group, HuBA-1-3D 1 mg/kg, H3B-6527 50 mg/kg, FGF-401 10 mg/kg, BLU-554 30 mg/kg
Method: (§1) Hep3B cells (1×10^6 cells) were transplanted subcutaneously into the right flank of NOD-SCID mice. At the stage where the tumor volume reached 250 to 350 mm 3, these mice were divided into the following 8 groups of 6 mice each, and administered from the same day: • the Vehicle group; • the group receiving HuBA-1-3D (1 mg/kg); • the group receiving H3B-6527 (50 mg/kg); • the group receiving FGF-401 (10 mg/kg); • the group receiving BLU-554 (30 mg/kg); • the group receiving HuBA-1-3D (1 mg/kg)+H3B-6527 (50 mg/kg); • the group receiving HuBA-1-3D (1 mg/kg)+FGF-401 (10 mg/kg); and • the group receiving HuBA-1-3D (1 mg/kg)+BLU-554 (30 mg/kg).
(§2) HuBA-1-3D was intraperitoneally administered, while FGFR4 inhibitors (H3B-6527, FGF-401 and BLU-554) were orally administered. At 48 hours after administration, three mice in each group were sacrificed to excise their tumors, and the tumors were fixed in 10% formalin and then embedded in paraffin to prepare sections for immunostaining. In addition, tissue extracts were prepared for Western blotting.
Subsequently, apoptosis (cleaved caspase-3 and Cleaved PARP) and cancer cell proliferation (cyclin B1) in the Hep3B xenograft tumor upon administration of each agent were analyzed by Western blotting.

[2] = test system: human hepatic cancer cell line Hep3B xenograft; assay: Antitumor effect in Hep3B xenograft therapeutic model, HuBA-1-3D and BLU-554; format: in vivo, mouse; conditions: alone or combined
Source text: (§3) In an attempt to further verify the enhancing effect on antitumor activity upon combined administration of HuBA-1-3D antibody and FGFR4 inhibitor as in the case of the above examples, the antitumor effect obtained upon combined administration of BLU-554 and HuBA-1-3D was studied in a xenograft therapeutic model based on the human hepatic cancer cell line Hep3B, wherein BLU-554 inhibits FGFR4-specific tyrosine kinase activity by specifically binding to cysteine at amino acid position 552 of the ATP-binding region present in the region located at amino acid positions 545 to 562 of FGFR4 (Cancer Discov. 2019 December; 9(12):1696-1707), as in the case of H3B-6527 and FGF-401.
Hep3B cells (1×10^6 cells) were transplanted (Day 0), and at the point of time when the mean tumor volume exceeded 100 mm^3 (Day 14), animals were divided into the following 4 groups and administered from the same day: • the Vehicle group (N=8); • the group receiving BLU-554 (30 mg/kg body weight, twice a day) (N=8); • the group receiving HuBA-1-3D (1 mg/kg body weight) (N=8); and • the group receiving BLU-554 (30 mg/kg body weight) and HuBA-1-3D (1 mg/kg body weight) (N=8).
HuBA-1-3D was intraperitoneally administered once a day 4 times in total on Days 14, 17, 21 and 24, while BLU-554 was orally administered twice a day 10 times in total on Days 14, 15, 16, 17, 18, 21, 22, 23, 24 and 25. […]

[3] = test system: Hep3B xenograft tumor; assay: Immunostaining for Ki-67 and cleaved caspase-3 in Hep3B xenograft tumor at 48 hours after administration; format: in vivo, NOD-SCID mice; conditions: HuBA-1-3D 1 mg/kg i.p., H3B-6527 50 mg/kg, FGF-401 10 mg/kg, BLU-554 30 mg/kg oral, alone or combined
Method: as §1, §2
Cancer cell proliferation and apoptosis in the Hep3B tumor at 48 hours after administration were analyzed by immunostaining in which Ki-67 or cleaved caspase-3 expression was used as an indicator.

[4] = test system: human hepatic cancer cell line Hep3B xenograft; assay: Antitumor effect in Hep3B xenograft therapeutic model, HuBA-1-3D and CH518324/Debio1347; format: in vivo, mice; conditions: alone or combined
Source text: In each group, a mouse whose tumor volume exceeded 1,500 mm^3 was sacrificed at that point of time.

[5] = target: FGFR4 (Homo sapiens, UniProt P22455); conditions: reported in Mol Cancer Ther (2014); 13(11); 2547-58; read-out: tyrosine kinase inhibitory activity (IC50) against FGFR4; cited from earlier work
[6] = test system: human hepatic cancer cell line Hep3B xenograft; assay: Antitumor effect in Hep3B xenograft therapeutic model, HuBA-1-3D and FGF-401; format: in vivo, NOD-SCID mice; conditions: alone or combined
Source text: as §3, with “Then, in” for “In”, “(FGF-401),” for “as in the case of the above examples,”, “FGF-401” for “BLU-554”, “(Mol. Cancer Ther.” for “(Cancer Discov.”, “18(12):2194-2206),” for “9(12):1696-1707),”, “H3B-6527.” for “H3B-6527 and FGF-401.”
Hep3B cells (1×10^6 cells) were transplanted subcutaneously into the right flank of NOD-SCID mice (Day 0). At the stage where the mean tumor volume exceeded 100 mm^3 (Day 14), the mice were divided into the following 6 groups, and administered from the same day: • the Vehicle group (N=8); • the group receiving FGF-401 (10 mg/kg body weight, twice a day) (N=8); • the group receiving HuBA-1-3D (0.3 mg/kg body weight) (N=8); • the group receiving HuBA-1-3D (1 mg/kg body weight) (N=8); • the group receiving FGF-401 (10 mg/kg body weight) and HuBA-1-3D (0.3 mg/kg body weight) (N=8); and • the group receiving FGF-401 (10 mg/kg body weight) and HuBA-1-3D (1 mg/kg body weight) (N=8).
HuBA-1-3D was intraperitoneally administered once a day 4 times in total on Days 14, 17, 21 and 24, while FGF-401 was orally administered twice a day 10 times in total on Days 14, 15, 16, 17, 18, 21, 22, 23, 24 and 25. The combined administration of HuBA-1-3D and FGF-401 was performed 4 times in total on Days 14, 17, 21 and 24. In each group, a mouse whose tumor volume exceeded 1,500 mm^3 was sacrificed at that point of time.

[7] = test system: human hepatic cancer cell line Hep3B xenograft; assay: Antitumor effect in Hep3B xenograft therapeutic model, HuBA-1-3D and H3B-6527; format: in vivo, NOD-scid mice; conditions: alone or combined
Source text: The antitumor effect obtained upon combined administration of HuBA-1-3D antibody and H3B-6527 serving as a small molecule inhibitor against FGFR4 (Cancer Res. 2017 Dec. 15; 77(24):6999-7013) was studied in a xenograft therapeutic model based on the human hepatic cancer cell line Hep3B. • (1) Hep3B cells were transplanted subcutaneously into the right flank of NOD-scid mice (Day 0). At the stage where the mean tumor volume reached around 100 mm^3 (Day 14), the mice were divided into the following 6 groups, and administered from the same day for 11 days with HuBA-1-3D at a frequency of twice a week (Days 14, 18, 22 and 25) and/or with H3B-6527 twice a day (BID) and five times a week in a cycle of administration for 5 days and withdrawal for 2 days (Days 14, 15, 16, 17, 18, 21, 22, 23, 24 and 25): • the Vehicle group (N=8) • the group receiving H3B-6527 (50 mg/kg body weight, twice a day) (N=8); • the group receiving HuBA-1-3D (0.3 mg/kg body weight) (N=8); • the group receiving HuBA-1-3D (1 mg/kg body weight) (N=8); • the group receiving H3B-6527 (50 mg/kg body weight) and HuBA-1-3D (0.3 • mg/kg body weight) (N=8); and • the group receiving H3B-6527 (50 mg/kg body weight) and HuBA-1-3D (1 mg/kg body weight) (N=8).
The tumor volume was measured at a frequency of twice a week, and an animal whose tumor volume reached 1,500 mm^3 was excluded from observation.

FGFR4, sequence (P22455 22-802): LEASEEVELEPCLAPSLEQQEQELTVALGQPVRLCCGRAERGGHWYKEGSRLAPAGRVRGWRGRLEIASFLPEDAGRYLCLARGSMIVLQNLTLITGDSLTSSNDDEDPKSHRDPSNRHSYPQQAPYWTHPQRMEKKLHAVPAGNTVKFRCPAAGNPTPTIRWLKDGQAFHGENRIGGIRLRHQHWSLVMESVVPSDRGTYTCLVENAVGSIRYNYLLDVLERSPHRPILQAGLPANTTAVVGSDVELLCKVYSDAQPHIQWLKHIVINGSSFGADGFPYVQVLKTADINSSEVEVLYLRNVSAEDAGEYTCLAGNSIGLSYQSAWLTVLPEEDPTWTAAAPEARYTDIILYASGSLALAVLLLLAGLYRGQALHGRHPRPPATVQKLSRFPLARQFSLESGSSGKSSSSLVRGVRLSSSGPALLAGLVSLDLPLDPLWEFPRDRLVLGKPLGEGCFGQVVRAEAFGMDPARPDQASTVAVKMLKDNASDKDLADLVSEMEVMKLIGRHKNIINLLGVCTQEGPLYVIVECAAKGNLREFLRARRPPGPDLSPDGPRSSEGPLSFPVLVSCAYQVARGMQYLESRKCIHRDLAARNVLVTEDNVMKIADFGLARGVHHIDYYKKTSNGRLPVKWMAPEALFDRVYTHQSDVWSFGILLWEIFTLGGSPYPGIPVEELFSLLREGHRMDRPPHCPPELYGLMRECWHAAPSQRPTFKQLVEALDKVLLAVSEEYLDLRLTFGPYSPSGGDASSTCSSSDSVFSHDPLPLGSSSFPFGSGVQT

| SMILES | expression level of cyclin B1 (cell proliferation marker) compared to the Vehicle group [1] | expression of apoptosis markers (Cleaved caspase-3 and cleaved PARP) [1] | mean tumor volume ([2]; Day 38 (13 days after final administration), BLU-554 30 mg/kg twice a day oral, HuBA-1-3D 1 mg/kg i.p.) [mm^3] | T/C ([2]; Day 38, vs Vehicle, BLU-554 30 mg/kg, HuBA-1-3D 1 mg/kg) [%] | apoptotic cells stained with cleaved caspase-3 in the tumor [3] | proportion of cancer cells stained with Ki-67 compared to the Vehicle group [3] | mean tumor volume ([4]; Day 31 (6 days after final administration), CH518324/Debio1347 50 mg/kg once a day oral, HuBA-1-3D 1 mg/kg i.p.) [mm^3] | T/C ([4]; Day 31, vs Vehicle, CH518324/Debio1347 50 mg/kg, HuBA-1-3D 1 mg/kg) [%] | IC50 [5] [nM] | tumor volume ([6]; Day 28 (3 days after final administration), FGF-401 10 mg/kg twice a day oral, HuBA-1-3D 1 mg/kg i.p.) [mm^3] | T/C ([6]; Day 28, vs Vehicle, FGF-401 10 mg/kg, HuBA-1-3D 1 mg/kg) [%] | antitumor effect compared to tumor volume in the Vehicle group ([6]; Day 35 (10 days after final administration), FGF-401 10 mg/kg, HuBA-1-3D 1 mg/kg, Dunnett) | tumor volume ([7]; Day 32 (7 days after completion of administration), H3B-6527 50 mg/kg twice a day, HuBA-1-3D 1 mg/kg twice a week) [mm^3] | T/C ([7]; Day 32, vs Vehicle, H3B-6527 50 mg/kg twice a day, HuBA-1-3D 1 mg/kg) [%] | tumor volume ([7]; Day 38 (13 days after final administration), H3B-6527 50 mg/kg, HuBA-1-3D 1 mg/kg) [mm^3] | tumor presence / tumor disappearance at excision (animals) ([7]; Day 38, H3B-6527 50 mg/kg, HuBA-1-3D 1 mg/kg) | tumor weight ([7]; tumors excised on Day 38, H3B-6527 50 mg/kg, HuBA-1-3D 1 mg/kg) [g] |
| --- | --- | --- | --- | --- | --- | --- | --- | --- | --- | --- | --- | --- | --- | --- | --- | --- | --- |
| C=CC(=O)N[C@H]1CCOC[C@H]1Nc1ncc2cc(-c3c(Cl)c(OC)cc(OC)c3Cl)ccc2n1 [BLU-554, N-[(3 S,4S)-3-[[6-(2,6-dichloro-3,5-dimethoxyphenyl)quinazolin-2-yl]amino]oxan-4-yl]prop-2-enamide] | no difference | induced in none of the three animals | 688.8±562.4 | 63.7 | not detected | no change | – | – | – | – | – | – | – | – | – | – | – |
| Cc1nc2ccc(-n3ncc(C(=O)c4cc5ccccc5[nH]4)c3N)cc2[nH]1 [CH518324/Debio1347] | – | – | – | – | – | – | 673.8±271.8 | 56.2 | 290 | – | – | – | – | – | – | – | – |
| COCCNc1cc(NC(=O)N2CCCc3cc(CN4CCN(C)CC4=O)c(C=O)nc32)ncc1C#N [FGF-401, N-[5-cyano-4-[(2-methoxyethyl)amino]-2-pyridinyl]-7-formyl-3,4-dihydro-6-[(4-methyl-2-oxo-1-piperazinyl)methyl]-1,8-naphthyridine-1(2H)-carboxamide] | no difference | induced in none of the three animals | – | – | not detected | no change | – | – | – | 388.9±94.8 | 56.8 | significant antitumor effect | – | – | – | – | – |
| C=CC(=O)Nc1cc(N2CCN(CC)CC2)ccc1Nc1cc(N(C)C(=O)Nc2c(Cl)c(OC)cc(OC)c2Cl)ncn1 [H3B-6527, N-{2-[(6-{[(2,6-dichloro-3,5-dimethoxyphenyl)carbamoyl](methyl)amino}-4-pyrimidinyl)amino]-5-(4-ethyl-1-piperazinyl)phenyl}acrylamide] | no difference | induced in none of the three animals | – | – | not detected | no change | – | – | – | – | – | – | 647.8±146.2 | 47 | 1222.0±326.5 | all the 8 animals in each group were confirmed to have tumor | 1.010 ± 0.260 |
